In the supplement of paper PMC10307832:

Columns and labels:
Assay in all cases: relative viability (nuclei count vs DMSO), 5 days (fraction); higher = more cells survive
[1] = tested on: NCI-H3122
Outline: (§1)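 Dosing by pin tool came one day after lung cancer cell lines were seeded in 1536-well plates, using either one drug or a fixed anchor-drug dose plus five library-drug doses (not always all listed) in √10 steps. After 5 days, nuclei were counted on 4× images. Relative viability is treated-well nuclei count divided by vehicle-well nuclei count, and values are medians of duplicate plates.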

[2] = tested on: NCI-H522
Outline: as §1

[3] = tested on: LU99A
Outline: as §1

[4] = tested on: NCI-H1650
Outline: as §1

[5] = tested on: LK-2
Outline: as §1

[6] = tested on: PC-3 [JPC-3]
Outline: as §1

[7] = tested on: NCI-H2170
Outline: as §1

[8] = tested on: NCI-H2228
Outline: as §1

[9] = tested on: HCC-827
Outline: as §1

[10] = tested on: NCI-H441
Outline: as §1

[11] = tested on: EKVX
Outline: as §1

[12] = tested on: NCI-H1355
Outline: as §1

[13] = tested on: SW 1573
Outline: as §1

[14] = tested on: H3255
Outline: as §1

[15] = tested on: NCI-H1993
Outline: as §1

[16] = tested on: HOP-62
Outline: as §1

[17] = tested on: UMC-11
Outline: as §1

[18] = tested on: LXF-289
Outline: as §1

[19] = tested on: NCI-H2405
Outline: as §1

[20] = tested on: LCLC-97TM1
Outline: as §1

[21] = tested on: EPLC-272H
Outline: as §1

[22] = tested on: SK-LU-1
Outline: as §1

[23] = tested on: ChaGo-K-1
Outline: as §1

CCNC(=O)c1noc(-c2cc(C(C)C)c(O)cc2O)c1-c1ccc(CN2CCOCC2)cc1 [Luminespib] + Cc1nc(Nc2ncc(C(=O)Nc3c(C)cccc3Cl)s2)cc(N2CCN(CCO)CC2)n1 [Dasatinib] (partner 0.075 µM)
relative viability ([1]; first compound 0.002 µM): 0.83 | relative viability ([1]; first compound 0.006325 µM): 0.812 | relative viability ([1]; first compound 0.02 µM): 0.0669 | relative viability ([1]; first compound 0.06325 µM): 0.0573 | relative viability ([1]; first compound 0.2 µM): 0.0548 | relative viability ([2]; first compound 0.002 µM): 1.1 | relative viability ([2]; first compound 0.006325 µM): 0.936 | relative viability ([2]; first compound 0.02 µM): 0.776 | relative viability ([2]; first compound 0.06325 µM): 0.577 | relative viability ([2]; first compound 0.2 µM): 0.481 | relative viability ([3]; first compound 0.002 µM): 0.658 | relative viability ([3]; first compound 0.006325 µM): 0.406 | relative viability ([3]; first compound 0.02 µM): 0.377 | relative viability ([3]; first compound 0.06325 µM): 0.0593 | relative viability ([3]; first compound 0.2 µM): 0.0775 | relative viability ([4]; first compound 0.002 µM): 0.326 | relative viability ([4]; first compound 0.006325 µM): 0.252 | relative viability ([4]; first compound 0.02 µM): 0.162 | relative viability ([4]; first compound 0.06325 µM): 0.192 | relative viability ([4]; first compound 0.2 µM): 0.168 | relative viability ([5]; first compound 0.002 µM): 0.267 | relative viability ([5]; first compound 0.006325 µM): 0.293 | relative viability ([5]; first compound 0.02 µM): 0.251 | relative viability ([5]; first compound 0.06325 µM): 0.146 | relative viability ([5]; first compound 0.2 µM): 0.128 | relative viability ([6]; first compound 0.002 µM): 0.99 | relative viability ([6]; first compound 0.006325 µM): 0.945 | relative viability ([6]; first compound 0.02 µM): 0.829 | relative viability ([6]; first compound 0.06325 µM): 0.863 | relative viability ([6]; first compound 0.2 µM): 0.25 | relative viability ([7]; first compound 0.002 µM): 0.503 | relative viability ([7]; first compound 0.006325 µM): 0.578 | relative viability ([7]; first compound 0.02 µM): 0.308 | relative viability ([7]; first compound 0.06325 µM): 0.163 | relative viability ([7]; first compound 0.2 µM): 0.106 | relative viability ([8]; first compound 0.002 µM): 0.423 | relative viability ([8]; first compound 0.006325 µM): 0.387 | relative viability ([8]; first compound 0.02 µM): 0.103 | relative viability ([8]; first compound 0.06325 µM): 0.096 | relative viability ([8]; first compound 0.2 µM): 0.101 | relative viability ([9]; first compound 0.002 µM): 0.217 | relative viability ([9]; first compound 0.006325 µM): 0.262 | relative viability ([9]; first compound 0.02 µM): 0.219 | relative viability ([9]; first compound 0.06325 µM): 0.259 | relative viability ([9]; first compound 0.2 µM): 0.117 | relative viability ([10]; first compound 0.002 µM): 0.579 | relative viability ([10]; first compound 0.006325 µM): 0.649 | relative viability ([10]; first compound 0.02 µM): 0.329 | relative viability ([10]; first compound 0.06325 µM): 0.132 | relative viability ([10]; first compound 0.2 µM): 0.114 | relative viability ([11]; first compound 0.002 µM): 0.311 | relative viability ([11]; first compound 0.006325 µM): 0.509 | relative viability ([11]; first compound 0.02 µM): 0.403 | relative viability ([11]; first compound 0.06325 µM): 0.515 | relative viability ([11]; first compound 0.2 µM): 0.393 | relative viability ([12]; first compound 0.002 µM): 0.678 | relative viability ([12]; first compound 0.006325 µM): 0.656 | relative viability ([12]; first compound 0.02 µM): 0.473 | relative viability ([12]; first compound 0.06325 µM): 0.414 | relative viability ([12]; first compound 0.2 µM): 0.153 | relative viability ([13]; first compound 0.002 µM): 0.506 | relative viability ([13]; first compound 0.006325 µM): 0.532 | relative viability ([13]; first compound 0.02 µM): 0.13 | relative viability ([13]; first compound 0.06325 µM): 0.0551 | relative viability ([13]; first compound 0.2 µM): 0.0703 | relative viability ([14]; first compound 0.002 µM): 0.375 | relative viability ([14]; first compound 0.006325 µM): 0.311 | relative viability ([14]; first compound 0.06325 µM): 0.406 | relative viability ([14]; first compound 0.2 µM): 0.197 | relative viability ([15]; first compound 0.002 µM): 0.633 | relative viability ([15]; first compound 0.006325 µM): 0.534 | relative viability ([15]; first compound 0.02 µM): 0.431 | relative viability ([15]; first compound 0.06325 µM): 0.331 | relative viability ([15]; first compound 0.2 µM): 0.353 | relative viability ([16]; first compound 0.002 µM): 0.734 | relative viability ([16]; first compound 0.006325 µM): 0.611 | relative viability ([16]; first compound 0.02 µM): 0.603 | relative viability ([16]; first compound 0.06325 µM): 0.408 | relative viability ([16]; first compound 0.2 µM): 0.102 | relative viability ([17]; first compound 0.002 µM): 0.474 | relative viability ([17]; first compound 0.006325 µM): 0.488 | relative viability ([17]; first compound 0.02 µM): 0.309 | relative viability ([17]; first compound 0.06325 µM): 0.214 | relative viability ([17]; first compound 0.2 µM): 0.153 | relative viability ([18]; first compound 0.002 µM): 0.271 | relative viability ([18]; first compound 0.006325 µM): 0.238 | relative viability ([18]; first compound 0.02 µM): 0.187 | relative viability ([18]; first compound 0.06325 µM): 0.0634 | relative viability ([18]; first compound 0.2 µM): 0.0395 | relative viability ([19]; first compound 0.002 µM): 0.226 | relative viability ([19]; first compound 0.006325 µM): 0.182 | relative viability ([19]; first compound 0.02 µM): 0.178 | relative viability ([19]; first compound 0.06325 µM): 0.164 | relative viability ([19]; first compound 0.2 µM): 0.138 | relative viability ([20]; first compound 0.002 µM): 0.884 | relative viability ([20]; first compound 0.006325 µM): 0.721 | relative viability ([20]; first compound 0.02 µM): 0.986 | relative viability ([20]; first compound 0.06325 µM): 0.726 | relative viability ([20]; first compound 0.2 µM): 0.106 | relative viability ([21]; first compound 0.002 µM): 0.365 | relative viability ([21]; first compound 0.006325 µM): 0.349 | relative viability ([21]; first compound 0.06325 µM): 0.35 | relative viability ([21]; first compound 0.2 µM): 0.0778 | relative viability ([22]; first compound 0.002 µM): 0.194 | relative viability ([22]; first compound 0.006325 µM): 0.167 | relative viability ([22]; first compound 0.02 µM): 0.077 | relative viability ([22]; first compound 0.06325 µM): 0.049 | relative viability ([22]; first compound 0.2 µM): 0.0612 | relative viability ([23]; first compound 0.002 µM): 0.634 | relative viability ([23]; first compound 0.006325 µM): 0.648 | relative viability ([23]; first compound 0.02 µM): 0.539 | relative viability ([23]; first compound 0.06325 µM): 0.376 | relative viability ([23]; first compound 0.2 µM): 0.143
